Results taken from patent US20220251039A1, “Diaryl-B-Lactam Compound and Preparation Method and Pharmaceutical Use Thereof” (Fudan University, priority 2016, published 2022).
Entries after “also recorded” stand apart in the source; their conditions may differ.

Legend:
[1] = system: p-histone H3, cyclin B1 and BuBR1; assay: Cell cycle associated proteins assay; format: cell-based, human; settings: HeLa cells, 24 h, Western blot and qPCR
Protocol: A. HeLa cells were treated with 69, 70, 97 or DMSO for 24 h. After being harvested, the cells were lysed, and the concentrations of total protein were determined by BCA protein assay kit (Beyotime, China). […] The membrane was blocked with 5% BSA in TBST for 1.5 h, then incubated overnight with specific primary antibodies (Proteintech) at 4° C. After being washed three times by TBST, the membrane was incubated with specific secondary antibodies (Abnova, Taipei, China) at room temperature for 2 h. Finally, chemiluminescent reagents (Millipore) were employed to detect the protein bands.
(§1) B. Quantitative PCR assay: HeLa cells were treated with 69, 70 or 97. The expression level of mRNA of target proteins was tested with qPCR kit (Takara).

MDA-MB-231 cells = assay: Colony formation assay; format: cell-based, human; settings: 48 h treatment, 7-10 days growth
Protocol: 1000 MDA-MB-231 cells per well were seeded into 6-well plate at a single cell density and were cultured at 37° C. for 48 h. After being treated with indicated concentrations of 69, 70 and 97, CA-4 as positive control, or diluent (0.2% DMSO) as negative control for 48 h, the agents containing medium was replaced by fresh medium to allow cell growth for additional 7-10 days. Then the cells were fixed with methanol and stained with gentian violet for 30 min. The number of colonies which consisted of more than 50 cells were counted. The results were indicated as mean values from three independent determinations.

cellular apoptosis = assay: Cell apoptosis analysis (Annexin V/PI); format: cell-based; settings: 48 h, Annexin-V/PI flow cytometry
Protocol: Cell apoptosis was detected using FITC Annexin V Apoptosis Detection Kit (BD Biosciences) according to manufacturer's instructions. Briefly, cells were incubated with indicated concentrations of 69, 70 and 97, CA-4 as positive control or diluent (0.2% DMSO) as negative control for 48 h. Then the cells were harvested, washed twice with PBS, and re-suspended in binding buffer. After being stained with Annexin-V and PI for 15 min in the dark place, cells were subjected to flow cytometry (Cytomics FC 500 MPL, Beckman Coulter) analysis. The results were indicated as mean values from three independent determinations.

A2780 cells = assay: Xenografts tumor growth assay in nude mice; format: in vivo, Balb/c nude mice; settings: A2780 xenograft; for tumor growth in vivo: i.p. once every 2 days, 69 7.5 mg/kg, 70 12.5 mg/kg, 97 4 or 8 mg/kg; for H&E staining of liver, kidney and spleen / H&E staining of tumor sections (necrosis): treated groups
Protocol: 6 weeks old female Balb/c nude mice were purchased from Shanghai Slac Laboratory Animal Co. Ltd. (Shanghai, China). 2*10^6 A2780 cells suspended in 0.2 mL PBS per mouse was injected subcutaneously into the nude mice. […] Administration of agents or vehicle, or agents and measurement of tumor volumes with a digital caliper was done once every 2 days. Tumor volumes were calculated as volume=shortest diameter (W)^2*longest diameter (L)*0.52. When the average tumor volumes of vehicle treated group reached 2000 mm^3 in diameter, the mice were sacrificed and the tumors were isolated and weighed. Visceral organs of the mice as well as solid tumors were further analyzed by H&E staining.

tubulin [2] = assay: Immunoblotting analysis of polymerized/depolymerized tubulin; format: cell-based, human; settings: Hela cells, 6 h
Protocol: After being treated with diluent (0.2% DMSO), tested compound, CA-4 or PTX for 6 h, Hela cells were lysed with microtubulestabilizing buffer, containing 100 mM PIPES, pH 6.8, 1 mM MgCl2, 2 mM EGTA, 0.5% NP-40, 2 M glycerol, 5 μM PTX and protease inhibitors cocktail (Roche), and the lysate was centrifuged at 15,000 rpm for 15 min. Supernatant containing depolymerized tubulin was carefully collected, whereas pellet (polymerized tubulin) was further dissolved in SDS-lysis buffer (Beyotime, China). Equal amounts of supernatant and dissolved pellet were subjected to immunoblotting analysis as described above using a tubulin antibody (Proteintech).

[3] = system: Bax, p53 and cleaved-PARP; assay: Expression level of apoptosis associated proteins; format: cell-based, human; settings: HeLa cells, Western blot and qPCR
Protocol: A. Western blotting: After being treated with candidate compound, cells were harvested and lysed. Then, the lysate was isolated by ultracentrifuge and quantified by BCA assay according to the protocol. After being denatured, equivalent protein of each sample was separated by SDS-PAGE gel and wet-transferred onto […] nitrocellulose membrane. After being blocked by PBS containing 5% skim milk, the membrane was incubated with primary antibody at 4° C. overnight and secondary antibody at room temperature for 2 h and then visualized by enhanced chemiluminescence kit (Thermo Fisher, USA), sequentially.
as §1

KM mice = assay: Acute toxicity assay; format: in vivo
Protocol: KM mice were housed individually in a specific pathogen free facility. Groups of mice (n=10 per group, half male and half female) were injected intraperitoneally once with various dosages of 69 (95, 70, 50, 35, 25 mg/kg), 70 (500, 425, 350, 275, 200 mg/kg), 97 (275, 200, 150, 125 and 100 mg/kg) or vehicle (8.3% cremohorp EL and 8.3% alcohol in PBS) as negative control, respectively. 69, 70 and 97 was dissolved in cremeohore EL and alcohol mixture (1:1, v/v) and further diluted with PBS (1:5, v/v). The death of mice were monitored daily and recorded up to 14 days after injection.

tubulin [4] = assay: Immunofluorescent analysis of tubulin morphology; format: cell-based, human; settings: SKOV-3 cells, 24 h
Protocol: After treatment with diluent (0.2% DMSO) or tested compounds at indicated concentrations for 24 h, SKOV-3 cells were fixed with methanol, permeabilized with 0.1% Triton X-100 in PBS and blocked by goat serum. Then the cells were incubated with a-tubulin antibody at 4° C. overnight, followed by incubation with Alexa 488 labeled secondary antibody (Jackson ImmunoResearch) at RT for 1 h. After being stained with DAPI, cells were examined and photographed with a Leica SP5 co-focal fluorescence microscope.

Compound: COc1ccc([C@H]2[C@@H](C)C(=O)N2c2cc(OC)c(OC)c(OC)c2)cc1O [Compound 70, (3R,4R)-4-(3-hydroxy-4-methoxyphenyl)-3-methyl-1-(3,4,5-trimethoxyphenyl)azetidin-2-one]
- expression of p-histone H3, cyclin B1 and BuBR1 [1]: significantly promote the expression of phosphorylated histone H3, cyclin B1, and mitotic checkpoint protein BuBR1
- colony formation (MDA-MB-231 cells): significantly inhibit the formation of colonies of cancer cells
- cellular apoptosis (cellular apoptosis): significantly promote apoptosis; also recorded: significantly induce cellular apoptosis
- tumor growth in vivo (A2780 cells): significantly inhibit tumor growth in vivo; also recorded: anti-tumor activities in vivo
- H&E staining of liver, kidney and spleen (A2780 cells): no abnormal areas are observed in tissue staining of liver, kidney and spleen; also recorded: no detectable abnormalities were observed in liver, kidney and spleen
- H&E staining of tumor sections (necrosis) (A2780 cells): cause tumor tissue to produce necrotic areas; also recorded: extensive areas of necrosis or cell death
- polymerized tubulin (immunoblotting) (tubulin [2]): significantly inhibit tubulin aggregation; also recorded: dramatically reduction of polymerized tubulin
- expression of Bax, p53 and cleaved-PARP [3]: significantly promote the expression of the proapoptotic protein Bax, the tumor suppressor gene p53, and the cleaved DNA repair enzyme; also recorded: significantly induce the expression of Bax, p53 and cleaved-PARP
- No. of dead mice 5-14 days (KM mice; 200 mg/kg i.p. once): 0
- No. of dead mice 1 day (KM mice; 200 mg/kg i.p. once): 0
- No. of dead mice 2 days (KM mice; 200 mg/kg i.p. once): 0
- No. of dead mice 3 days (KM mice; 200 mg/kg i.p. once): 0
- No. of dead mice 4 days (KM mice; 200 mg/kg i.p. once): 0
- No. of dead mice Total death (KM mice; 200 mg/kg i.p. once): 0
- Survival (%) on day 14 (KM mice; 200 mg/kg i.p. once): 100%
- No. of dead mice 5-14 days (KM mice; 275 mg/kg i.p. once): 1
- No. of dead mice 1 day (KM mice; 275 mg/kg i.p. once): 0
- No. of dead mice 2 days (KM mice; 275 mg/kg i.p. once): 0
- No. of dead mice 3 days (KM mice; 275 mg/kg i.p. once): 0
- No. of dead mice 4 days (KM mice; 275 mg/kg i.p. once): 1
- No. of dead mice Total death (KM mice; 275 mg/kg i.p. once): 2
- Survival (%) on day 14 (KM mice; 275 mg/kg i.p. once): 80%
- No. of dead mice 5-14 days (KM mice; 350 mg/kg i.p. once): 0
- No. of dead mice 1 day (KM mice; 350 mg/kg i.p. once): 0
- No. of dead mice 2 days (KM mice; 350 mg/kg i.p. once): 0
- No. of dead mice 3 days (KM mice; 350 mg/kg i.p. once): 1
- No. of dead mice 4 days (KM mice; 350 mg/kg i.p. once): 0
- No. of dead mice Total death (KM mice; 350 mg/kg i.p. once): 1
- Survival (%) on day 14 (KM mice; 350 mg/kg i.p. once): 90%
- No. of dead mice 5-14 days (KM mice; 425 mg/kg i.p. once): 0
- No. of dead mice 1 day (KM mice; 425 mg/kg i.p. once): 0
- No. of dead mice 2 days (KM mice; 425 mg/kg i.p. once): 0
- No. of dead mice 3 days (KM mice; 425 mg/kg i.p. once): 3
- No. of dead mice 4 days (KM mice; 425 mg/kg i.p. once): 0
- No. of dead mice Total death (KM mice; 425 mg/kg i.p. once): 3
- Survival (%) on day 14 (KM mice; 425 mg/kg i.p. once): 70%
- No. of dead mice 5-14 days (KM mice; 500 mg/kg i.p. once): 0
- No. of dead mice 1 day (KM mice; 500 mg/kg i.p. once): 0
- No. of dead mice 2 days (KM mice; 500 mg/kg i.p. once): 0
- No. of dead mice 3 days (KM mice; 500 mg/kg i.p. once): 4
- No. of dead mice 4 days (KM mice; 500 mg/kg i.p. once): 0
- No. of dead mice Total death (KM mice; 500 mg/kg i.p. once): 4
- Survival (%) on day 14 (KM mice; 500 mg/kg i.p. once): 60%
- tubulin assembly (immunofluorescence) (tubulin [4]): significantly inhibit tubulin aggregation; also recorded: strongly inhibit tubulin assembly in cancer cells

Compound: COc1ccc([C@H]2[C@H](CO)C(=O)N2c2cc(OC)c(OC)c(OC)c2)cc1O [Compound 69, (3R,4R)-4-(3-hydroxy-4-methoxyphenyl)-3-(hydroxymethyl)-1-(3,4,5-trimethoxyphenyl)azetidin-2-one]
- expression of p-histone H3, cyclin B1 and BuBR1 [1]: significantly promote the expression of phosphorylated histone H3, cyclin B1, and mitotic checkpoint protein BuBR1
- colony formation (MDA-MB-231 cells): significantly inhibit the formation of colonies of cancer cells
- cellular apoptosis (cellular apoptosis): significantly promote apoptosis; also recorded: significantly induce cellular apoptosis
- tumor growth in vivo (A2780 cells): significantly inhibit tumor growth in vivo; also recorded: anti-tumor activities in vivo
- H&E staining of liver, kidney and spleen (A2780 cells): no abnormal areas are observed in tissue staining of liver, kidney and spleen; also recorded: no detectable abnormalities were observed in liver, kidney and spleen
- H&E staining of tumor sections (necrosis) (A2780 cells): cause tumor tissue to produce necrotic areas; also recorded: extensive areas of necrosis or cell death
- polymerized tubulin (immunoblotting) (tubulin [2]): significantly inhibit tubulin aggregation; also recorded: dramatically reduction of polymerized tubulin
- expression of Bax, p53 and cleaved-PARP [3]: significantly promote the expression of the proapoptotic protein Bax, the tumor suppressor gene p53, and the cleaved DNA repair enzyme; also recorded: significantly induce the expression of Bax, p53 and cleaved-PARP
- No. of dead mice 5-14 days (KM mice; 25 mg/kg i.p. once): 0
- No. of dead mice 1 day (KM mice; 25 mg/kg i.p. once): 0
- No. of dead mice 2 days (KM mice; 25 mg/kg i.p. once): 0
- No. of dead mice 3 days (KM mice; 25 mg/kg i.p. once): 0
- No. of dead mice 4 days (KM mice; 25 mg/kg i.p. once): 0
- No. of dead mice Total death (KM mice; 25 mg/kg i.p. once): 0
- Survival (%) on day 14 (KM mice; 25 mg/kg i.p. once): 100%
- No. of dead mice 5-14 days (KM mice; 35 mg/kg i.p. once): 0
- No. of dead mice 1 day (KM mice; 35 mg/kg i.p. once): 0
- No. of dead mice 2 days (KM mice; 35 mg/kg i.p. once): 0
- No. of dead mice 3 days (KM mice; 35 mg/kg i.p. once): 1
- No. of dead mice 4 days (KM mice; 35 mg/kg i.p. once): 0
- No. of dead mice Total death (KM mice; 35 mg/kg i.p. once): 1
- Survival (%) on day 14 (KM mice; 35 mg/kg i.p. once): 90%
- No. of dead mice 5-14 days (KM mice; 50 mg/kg i.p. once): 0
- No. of dead mice 1 day (KM mice; 50 mg/kg i.p. once): 0
- No. of dead mice 2 days (KM mice; 50 mg/kg i.p. once): 0
- No. of dead mice 3 days (KM mice; 50 mg/kg i.p. once): 1
- No. of dead mice 4 days (KM mice; 50 mg/kg i.p. once): 0
- No. of dead mice Total death (KM mice; 50 mg/kg i.p. once): 1
- Survival (%) on day 14 (KM mice; 50 mg/kg i.p. once): 90%
- No. of dead mice 5-14 days (KM mice; 70 mg/kg i.p. once): 1
- No. of dead mice 1 day (KM mice; 70 mg/kg i.p. once): 0
- No. of dead mice 2 days (KM mice; 70 mg/kg i.p. once): 0
- No. of dead mice 3 days (KM mice; 70 mg/kg i.p. once): 4
- No. of dead mice 4 days (KM mice; 70 mg/kg i.p. once): 2
- No. of dead mice Total death (KM mice; 70 mg/kg i.p. once): 7
- Survival (%) on day 14 (KM mice; 70 mg/kg i.p. once): 30%
- No. of dead mice 5-14 days (KM mice; 95 mg/kg i.p. once): 1
- No. of dead mice 1 day (KM mice; 95 mg/kg i.p. once): 0
- No. of dead mice 2 days (KM mice; 95 mg/kg i.p. once): 0
- No. of dead mice 3 days (KM mice; 95 mg/kg i.p. once): 6
- No. of dead mice 4 days (KM mice; 95 mg/kg i.p. once): 1
- No. of dead mice Total death (KM mice; 95 mg/kg i.p. once): 8
- Survival (%) on day 14 (KM mice; 95 mg/kg i.p. once): 20%
- tubulin assembly (immunofluorescence) (tubulin [4]): significantly inhibit tubulin aggregation; also recorded: strongly inhibit tubulin assembly in cancer cells

Compound: C=C1C(=O)N(c2cc(OC)c(OC)c(OC)c2)[C@H]1c1ccc(OC)c(O)c1 [Compound 1, (S)-4-(3-hydroxy-4-methoxyphenyl)-3-methylene-1-(3,4,5-trimethoxyphenyl)azetidin-2-one]
- polymerized tubulin (immunoblotting) (tubulin [2]): significantly inhibit tubulin aggregation
- tubulin assembly (immunofluorescence) (tubulin [4]): significantly inhibit tubulin aggregation
